Measurements reported in US4386075A, “Renally active tetrapeptides” (SmithKline Beckman Corporation, priority 1982, dated 1983).

Assays:
anesthetized dogs = experiment: anesthetized dog infusion test (MAP, RBF, RVR, HR); format: in vivo; details: for % change HR (heart rate) / % change MAP (mean arterial blood pressure) / % change RBF (renal blood flow) / % change RVR (renal vascular resistance): 1 dog
Description: In the anesthetized dog protocol discussed above this compound gave the following data: […]

[1] = secondary test
[2] = tested on: spontaneously hypertensive rat; details: in vivo
toad bladder = toad bladder test
[3] = 300 μg/kg/min, anesthetized dog, cumulative effects

For “4-(4-hydroxyphenyl)-butyryl-L-propyl-D,L-α-methylphenylalanyl-glycyl-L-proline [Example 2]”, the “% change HR (heart rate)” value (anesthetized dogs; infusion 3 μg/kg/min) was 6%, the “% change MAP (mean arterial blood pressure)” value (from here on “% change MAP”) (anesthetized dogs; infusion 3 μg/kg/min) was -5% and the “% change RBF (renal blood flow)” value (anesthetized dogs; infusion 3 μg/kg/min) was 17%. The “% change RVR (renal vascular resistance)” value (anesthetized dogs; infusion 3 μg/kg/min) was -18%, the “% change HR (heart rate)” value (anesthetized dogs; infusion 30 μg/kg/min) was 10% and the “% change MAP” value (anesthetized dogs; infusion 30 μg/kg/min) was -9%. For the same compound, the “% change RBF (renal blood flow)” value (anesthetized dogs; infusion 30 μg/kg/min) was 16%, the “% change RVR (renal vascular resistance)” value (anesthetized dogs; infusion 30 μg/kg/min) was -21% and the “% change HR (heart rate)” value (anesthetized dogs; infusion 300 μg/kg/min) was 6%. For the same compound, the “% change MAP” value (anesthetized dogs; infusion 300 μg/kg/min) was -6%, the “% change RBF (renal blood flow)” value (anesthetized dogs; infusion 300 μg/kg/min) was 14% and the “% change RVR (renal vascular resistance)” value (anesthetized dogs; infusion 300 μg/kg/min) was -17%. The “renal blood flow, cumulative effect” value (anesthetized dogs; measured after the normal period of the test, increased from 127 ml/min) was 162 mL/min, the “cardiac rate (HR), cumulative effect” value (anesthetized dogs; measured after the normal period of the test, predrug level 140 BPM) was 105 BPM and the ED15 [1] was 1.9 µg/kg. For the same compound, the “activity in spontaneously hypertensive rat protocol” value [2] was “not active”, the “diuresis in spontaneously hypertensive rat protocol” value [2] was “slight water diuresis” and the “reversal of antidiuretic hormone activity” value (toad bladder) was “inactive”.
With `NCCc1ccc(O)c(O)c1` [Dopamine, reference compound] the ED15 (anesthetized dogs; dog test procedure) was “about 3 mcg/kg/min”, the “% change HR (heart rate)” value (anesthetized dogs; infusion 3 μg/kg/min) was 2% and the “% change MAP” value (anesthetized dogs; infusion 3 μg/kg/min) was -16%. The “% change RBF (renal blood flow)” value (anesthetized dogs; infusion 3 μg/kg/min) was 28%, the “% change RVR (renal vascular resistance)” value (anesthetized dogs; infusion 3 μg/kg/min) was -34% and the ED15 [1] was 3.5 µg/kg.
For “N-4-(4-hydroxyphenyl)-butyryl-L-prolyl-D-phenylalanyl-glycyl-L-proline [Example 3]”, the “cumulative effect HR” value (anesthetized dogs; [3]) was -8, the “cumulative effect MAP” value (anesthetized dogs; [3]) was 0 and the “cumulative effect RBF” value (anesthetized dogs; [3]) was “+22”. For the same compound, the “cumulative effect RVR” value (anesthetized dogs; [3]) was -18.
